Data on 19 compounds can be found in ChEMBL document CHEMBL1177642, “Synthesis and antibacterial studies of binaphthyl-based tripeptoids. Part 2” (2010).

≈ marks a conversion by molar mass, not a printed value.

Holding throughout (type): functional
Assay [1] deals with Enterococcus faecium. Nature of the assay: Antimicrobial activity against vancomycin-resistant Enterococcus faecium 243 after overnight incubation.
Another assay relates to Staphylococcus aureus. Put plainly: Antimicrobial activity against methicillin-resistant Staphylococcus aureus ATCC 43300 after overnight incubation.
Assay [2] concerns Enterococcus faecium. Put plainly: Antimicrobial activity against vancomycin-resistant Enterococcus faecium 987 after overnight incubation.
Assay [3] relates to Enterococcus faecium. Nature of the assay: Antimicrobial activity against vancomycin-resistant Enterococcus faecium 820 after overnight incubation.
For assay [4], the system named is Enterococcus faecium. Put plainly: Antimicrobial activity against vancomycin-resistant Enterococcus faecium 449 after overnight incubation.

As a reminder, the MIC50 is an inhibitory concentration at the 50% level, which refers to growth in some studies and to a panel of isolates in others. A low value points to higher susceptibility. As to `C=CCOc1ccc2ccccc2c1-c1c(OCC(=O)OCC)ccc2ccccc12`, the MIC50 in the assay on Enterococcus faecium [1] was found to be 31.3 µg/mL (≈ 75.9 µM); against Staphylococcus aureus, 3.9 µg/mL (≈ 9.45 µM); in the assay with Enterococcus faecium [2] it was 62.5 µg/mL (≈ 152 µM); against Enterococcus faecium [3], 31.3 µg/mL (≈ 75.9 µM); in the assay on Enterococcus faecium [4], 31.3 µg/mL (≈ 75.9 µM).
Consider `C=CC[C@H](NC(=O)[C@@H](CCCNC(=N)N)NC(=O)[C@@H](CCCCN)NC(=O)COc1ccc2ccccc2c1-c1c(OCCCc2ccccc2)ccc2ccccc12)C(=O)OCc1ccccc1.Cl.Cl`, for which the MIC50 was 62.5 µg/mL in the assay with Enterococcus faecium [1]; 3.9 µg/mL against Staphylococcus aureus; 62.5 µg/mL in the assay with Enterococcus faecium [2]; 31.3 µg/mL in the assay with Enterococcus faecium [3]; 31.3 µg/mL against Enterococcus faecium [4].
On to `C=CC[C@H](NC(=O)[C@@H](CCCNC(=N)N)NC(=O)[C@@H](CCCCN)NC(=O)COc1ccc2ccccc2c1-c1c(OCC2CCCCC2)ccc2ccccc12)C(=O)OCc1ccccc1.Cl.Cl`, for which the MIC50 was 62.5 µg/mL in the assay on Enterococcus faecium [1]; 3.9 µg/mL against Staphylococcus aureus; 62.5 µg/mL in the assay on Enterococcus faecium [2]; 31.3 µg/mL in the assay with Enterococcus faecium [3]; 62.5 µg/mL in the assay on Enterococcus faecium [4].
For the compound `CN[C@H](CC(C)C)C(=O)N[C@H]1C(=O)N[C@@H](CC(N)=O)C(=O)N[C@H]2C(=O)N[C@H]3C(=O)N[C@H](C(=O)N[C@H](C(=O)O)c4cc(O)cc(O)c4-c4cc3ccc4O)[C@H](O)c3ccc(c(Cl)c3)Oc3cc2cc(c3O[C@@H]2O[C@H](CO)[C@@H](O)[C@H](O)[C@H]2O[C@H]2C[C@](C)(N)[C@H](O)[C@H](C)O2)Oc2ccc(cc2Cl)[C@H]1O` [VANCOMYCIN], the MIC50 is 1.95 µg/mL (≈ 1.35 µM) against Enterococcus faecium [1]; 1.95 µg/mL (≈ 1.35 µM) with Staphylococcus aureus; < 0.98 µg/mL in the assay with Enterococcus faecium [2]; > 125 µg/mL against Enterococcus faecium [3]; 62.5 µg/mL (≈ 43.1 µM) in the assay with Enterococcus faecium [4].
Consider `CC(C)C[C@H](NC(=O)[C@@H](CCCNC(=N)N)NC(=O)[C@@H](CCCCN)NC(=O)COc1ccc2ccccc2c1-c1c(OCCc2ccccc2)ccc2ccccc12)C(=O)OCc1ccccc1.Cl.Cl`, for which the MIC50 came out at 31.3 µg/mL against Enterococcus faecium [1]; 5.2 µg/mL with Staphylococcus aureus; 31.3 µg/mL with Enterococcus faecium [2]; 15.6 µg/mL against Enterococcus faecium [3]; 31.3 µg/mL in the assay on Enterococcus faecium [4].
In the case of `C=CC[C@H](NC(=O)[C@@H](CCCNC(=N)N)NC(=O)[C@@H](CCCCN)NC(=O)COc1ccc2ccccc2c1-c1c(OCCCCC)ccc2ccccc12)C(=O)OCc1ccccc1.Cl.Cl`, the MIC50 in the assay with Enterococcus faecium [1] worked out at 62.5 µg/mL; against Staphylococcus aureus, 3.9 µg/mL; in the assay on Enterococcus faecium [2], 62.5 µg/mL; against Enterococcus faecium [3], 31.3 µg/mL; against Enterococcus faecium [4] it was 62.5 µg/mL.
With `CC(C)C[C@H](NC(=O)[C@@H](CCCNC(=N)N)NC(=O)[C@@H](CCCCN)NC(=O)COc1ccc2ccccc2c1-c1c(OCC#N)ccc2ccccc12)C(=O)OCc1ccccc1.Cl.Cl`, the MIC50 against Enterococcus faecium [1] was found to be 62.5 µg/mL; with Staphylococcus aureus, 3.9 µg/mL; against Enterococcus faecium [2] it was 62.5 µg/mL; against Enterococcus faecium [3], 31.3 µg/mL; against Enterococcus faecium [4], 31.3 µg/mL.
Turning to `CC(C)CCOc1ccc2ccccc2c1-c1c(OCC(=O)N[C@H](CCCCN)C(=O)N[C@H](CCCNC(=N)N)C(=O)N[C@@H](CC(C)C)C(=O)Oc2ccccc2)ccc2ccccc12.Cl.Cl`, the MIC50 against Enterococcus faecium [1] was 15.6 µg/mL; against Staphylococcus aureus, 3.9 µg/mL; with Enterococcus faecium [2] it was 15.6 µg/mL; against Enterococcus faecium [3] it was 7.8 µg/mL; against Enterococcus faecium [4], 15.6 µg/mL.
On to `C=CC[C@H](NC(=O)[C@@H](CCCNC(=N)N)NC(=O)[C@@H](CCCCN)NC(=O)COc1ccc2ccccc2c1-c1c(OCC2CCC2)ccc2ccccc12)C(=O)OCc1ccccc1.Cl.Cl`, for which the MIC50 turned out to be 62.5 µg/mL with Enterococcus faecium [1]; 3.9 µg/mL in the assay with Staphylococcus aureus; 62.5 µg/mL in the assay on Enterococcus faecium [2]; 31.3 µg/mL against Enterococcus faecium [3]; 52.1 µg/mL against Enterococcus faecium [4].
As for `C=CC[C@H](NC(=O)[C@@H](CCCNC(=N)N)NC(=O)[C@@H](CCCCN)NC(=O)COc1ccc2ccccc2c1-c1c(OC)ccc2ccccc12)C(=O)OCc1ccccc1.Cl.Cl`, the MIC50 worked out at 125 µg/mL in the assay with Enterococcus faecium [1]; 7.8 µg/mL against Staphylococcus aureus; 125 µg/mL with Enterococcus faecium [2]; 62.5 µg/mL in the assay on Enterococcus faecium [3]; 62.5 µg/mL with Enterococcus faecium [4].
On to `C=CC[C@H](NC(=O)[C@@H](CCCNC(=N)N)NC(=O)[C@@H](CCCCN)NC(=O)COc1ccc2ccccc2c1-c1c(OCC(C)(C)C)ccc2ccccc12)C(=O)OCc1ccccc1.Cl.Cl`, for which the MIC50 with Enterococcus faecium [1] amounted to 62.5 µg/mL; against Staphylococcus aureus it was 3.9 µg/mL; in the assay with Enterococcus faecium [2], 83.3 µg/mL; with Enterococcus faecium [3] it was 31.3 µg/mL; in the assay on Enterococcus faecium [4] it was 62.5 µg/mL.
With `C[C@H](NC(=O)[C@@H](CCCNC(=N)N)NC(=O)[C@@H](CCCCN)NC(=O)COc1ccc2ccccc2c1-c1c(O)ccc2ccccc12)C(=O)OCc1ccccc1.Cl.Cl`, the MIC50 amounted to 125 µg/mL in the assay on Enterococcus faecium [1]; 7.8 µg/mL against Staphylococcus aureus; 125 µg/mL with Enterococcus faecium [2]; 62.5 µg/mL in the assay with Enterococcus faecium [3]; 52.1 µg/mL against Enterococcus faecium [4].
Consider `CC(C)C[C@H](NC(=O)[C@@H](CCCNC(=N)N)NC(=O)[C@@H](CCCCN)NC(=O)COc1ccc2ccccc2c1-c1c(OCCC2CC2)ccc2ccccc12)C(=O)OCc1ccccc1.Cl.Cl`, for which the MIC50 with Enterococcus faecium [1] was determined as 125 µg/mL; with Staphylococcus aureus, 3.9 µg/mL; against Enterococcus faecium [2], 62.5 µg/mL; against Enterococcus faecium [3], 62.5 µg/mL; in the assay on Enterococcus faecium [4], 31.3 µg/mL.
As for `C=CC[C@H](NC(=O)[C@@H](CCCNC(=N)N)NC(=O)[C@@H](CCCCN)NC(=O)COc1ccc2ccccc2c1-c1c(OCC(C)C)ccc2ccccc12)C(=O)OCc1ccccc1.Cl.Cl`, the MIC50 against Enterococcus faecium [1] amounted to 62.5 µg/mL; with Staphylococcus aureus, 1.95 µg/mL; with Enterococcus faecium [2] it was 62.5 µg/mL; with Enterococcus faecium [3], 31.3 µg/mL; in the assay with Enterococcus faecium [4] it was 52.1 µg/mL.
In the case of `CCCCCCCCOc1ccc2ccccc2c1-c1c(OCC(=O)N[C@H](CCCCN)C(=O)N[C@H](CCCNC(=N)N)C(=O)N[C@@H](CC(C)C)C(=O)OCc2ccccc2)ccc2ccccc12.Cl.Cl`, the MIC50 in the assay on Enterococcus faecium [1] is 125 µg/mL; against Staphylococcus aureus, 13 µg/mL; against Enterococcus faecium [2], 125 µg/mL; in the assay with Enterococcus faecium [3], 62.5 µg/mL; against Enterococcus faecium [4], 125 µg/mL.
As to `COCCOc1ccc2ccccc2c1-c1c(OCC(=O)N[C@H](CCCCN)C(=O)N[C@H](CCCNC(=N)N)C(=O)N[C@@H](CC(C)C)C(=O)OCc2ccccc2)ccc2ccccc12.Cl.Cl`, the MIC50 was determined as 125 µg/mL in the assay with Enterococcus faecium [1]; 3.9 µg/mL with Staphylococcus aureus; 62.5 µg/mL in the assay on Enterococcus faecium [2]; 62.5 µg/mL in the assay with Enterococcus faecium [3]; 31.3 µg/mL with Enterococcus faecium [4].
On to `C=CC[C@H](NC(=O)[C@@H](CCCNC(=N)N)NC(=O)[C@@H](CCCCN)NC(=O)COc1ccc2ccccc2c1-c1c(OCc2ccccc2)ccc2ccccc12)C(=O)OCc1ccccc1.Cl.Cl`, for which the MIC50 against Enterococcus faecium [1] was determined as 62.5 µg/mL; in the assay with Staphylococcus aureus it was 3.9 µg/mL; against Enterococcus faecium [2], 125 µg/mL; in the assay on Enterococcus faecium [3], 62.5 µg/mL; in the assay with Enterococcus faecium [4], 62.5 µg/mL.
For the compound `CC(C)CCOc1ccccc1-c1ccccc1OCC(=O)N[C@H](CCCCN)C(=O)N[C@H](CCCNC(=N)N)C(=O)N[C@@H](CC(C)C)C(=O)OCc1ccccc1.Cl.Cl`, the MIC50 was 31.3 µg/mL with Enterococcus faecium [1]; 1.95 µg/mL with Staphylococcus aureus; 31.3 µg/mL in the assay on Enterococcus faecium [2]; 31.3 µg/mL in the assay with Enterococcus faecium [3]; 31.3 µg/mL in the assay with Enterococcus faecium [4].
Take `C=CCOc1ccc2ccccc2c1-c1c(OCC(=O)N[C@H](CCCCN)C(=O)N[C@H](CCCNC(=N)N)C(=O)N[C@@H](CC=C)C(=O)OCc2ccccc2)ccc2ccccc12.Cl.Cl`: the MIC50 against Enterococcus faecium [1] was 31.3 µg/mL; against Staphylococcus aureus, 1.96 µg/mL; against Enterococcus faecium [2], 31.3 µg/mL; against Enterococcus faecium [3], 31.3 µg/mL; against Enterococcus faecium [4], 31.3 µg/mL.
